Measurements published in US20240317758A1 (Halia Therapeutics, Inc., priority 2021, published 2024).

These compounds were tested against T1, full-length recombinant human NEK7 (Homo sapiens, UniProt Q8TDX7) (assay: NEK7 enzymatic assay). Conditions: recombinant human NEK7, casein substrate, radiolabelled ATP.
T1 construct: full-length recombinant human NEK7; GST (N); purchased SignalChem NO9-10G; host or cells: Sf9 insect cells (baculovirus)
Format: biochemical
Method: Casein substrate (from bovine milk, hydrolyzed and partially dephosphorylated mixture of α, β and κ caseins, obtained from Sigma Aldrich, catalogue #C4765, diluted in distilled water to a final concentration of 1 mg/mL) and full-length recombinant human NEK7 (expressed by baculovirus in Sf9 insect cells using a N-terminal GST tag, obtained from SignalChem, catalogue #NO9-10G, 0.1 μg/μL) were mixed in assay buffer (20 mM Hepes pH 7.5, 10 mM MgCl2, 1 mM EGTA, 0.02% Brij35, 0.02 mg/ml BSA, 0.1 mM Na3VO4, 2 mM DTT, 1% DMSO). Compounds of interest (serial 3-fold dilution in DMSO from 10 μM to 0.5 nM) or vehicle (1% DMSO) were dispensed into the kinase reaction mixture by Acoustic technology (Echo550; nanoliter range). After incubation at room temperature for 20 minutes, the kinase reaction was initiated by addition of [^33P]-ATP (specific activity 10 μCi/μl) and the mixture was incubated at room temperature for 2 hours. The reaction was then stopped by spotting the reaction mixture on strips of phosphocellulose P81 paper. Following washing, the radioactivity of the P81 paper was measured and kinase activity data were expressed as the percent remaining kinase activity in test samples compared to vehicle reactions. IC50 values and curve fits were obtained using Prism (GraphPad Software).
Casein substrate (from bovine milk, hydrolyzed and partially dephosphorylated mixture of α, β and κ caseins, obtained from Sigma Aldrich, catalogue #C4765, diluted in distilled water to a final concentration of 1 mg/mL, assay concentration 20 μM) and full-length recombinant human Nek7 (expressed by baculovirus in Sf9 insect cells using a N-terminal GST tag, obtained from SignalChem, catalogue #NO9-10G, 0.1 μg/μL, assay concentration 70 nM) were mixed in assay buffer (20 mM Hepes pH 7.5, 10 mM MgCl2, 1 mM EGTA, 0.02% Brij35, 0.02 mg/ml BSA, 0.1 mM […], 2 mM DTT, 1% DMSO). Compounds of interest (in DMSO, serial 3-fold dilution from 10 μM to 0.5 nM) or control (1% DMSO) were dispensed into the kinase reaction mixture by Acoustic technology (Echo550; nanoliter range). After incubation at room temperature for 20 minutes, the kinase reaction was initiated by addition of [^32P]-ATP (Specific activity 10 μCi/μl) and the mixture was incubated at room temperature for 2 hours. The reaction was then stopped by spotting the reaction mixture on strips of phosphocellulose P81 paper. Following washing, the radioactivity of the P81 paper was measured and kinase activity data were expressed as the percent remaining kinase activity in test samples compared to vehicle (dimethyl sulfoxide) reactions. IC50 values and curve fits were obtained using Prism (GraphPad Software).

T1 sequence (Q8TDX7 whole entry): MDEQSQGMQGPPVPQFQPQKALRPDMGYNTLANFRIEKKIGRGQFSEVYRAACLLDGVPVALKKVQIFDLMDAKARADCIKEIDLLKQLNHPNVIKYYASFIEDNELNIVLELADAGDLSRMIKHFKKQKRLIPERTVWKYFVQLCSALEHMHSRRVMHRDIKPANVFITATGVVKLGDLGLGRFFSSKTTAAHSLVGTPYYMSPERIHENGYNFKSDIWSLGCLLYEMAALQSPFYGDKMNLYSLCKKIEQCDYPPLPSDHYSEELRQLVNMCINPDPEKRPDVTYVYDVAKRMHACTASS

Row | Compound | IC50 [nM]
1 | CN1CC2CCC(C1)N2Cc1ccc(NC(=O)Nc2ccc(-c3cn(C4CC4)c4ncnc(N)c34)cc2F)cc1C(F)(F)F [Example I-4, 1-(4-(4-amino-7-cyclopropyl-7H-pyrrolo[2,3-d]pyrimidin-5-yl)-2-fluorophenyl)-3-(4-((3-methyl-3,8-diazabicyclo[3.2.1]octan-8-yl)methyl)-3-(trifluoromethyl)phenyl)urea] | 100 to 500
2 | CN1CCN(Cc2ccc(NC(=O)Nc3ccc(-c4cn(C5CC5)c5ncnc(N)c45)cn3)cc2C(F)(F)F)CC1 [Example I-14, 1-(5-(4-amino-7-cyclopropyl-7H-pyrrolo[2,3-d]pyrimidin-5-yl)pyridin-2-yl)-3-(4-((4-methylpiperazin-1-yl)methyl)-3-(trifluoromethyl)phenyl)urea] | < 100
3 | CCN1CCC(Oc2ccc(NC(=O)Nc3ccc(-c4cn(C5CC5)c5ncnc(N)c45)cc3F)cc2C(F)(F)F)CC1 [Example I-88, 1-(4-(4-amino-7-cyclopropyl-7H-pyrrolo[2,3-d]pyrimidin-5-yl)-2-fluorophenyl)-3-(4-((1-ethylpiperidin-4-yl)oxy)-3-(trifluoromethyl)phenyl)urea] | < 100
4 | Nc1ncnc2c1c(-c1ccc(NC(=O)Nc3ccc(CN4CCCCC4)c(C(F)(F)F)c3)c(F)c1)cn2C1CC1 [Example I-95, 1-(4-(4-amino-7-cyclopropyl-7H-pyrrolo[2,3-d]pyrimidin-5-yl)-2-fluorophenyl)-3-(4-(piperidin-1-ylmethyl)-3-(trifluoromethyl)phenyl)urea] | 500 to 2000
5 | CN1CCN(Cc2cc(NC(=O)Nc3ccc(-c4cn(C5CC5)c5ncnc(N)c45)cc3F)cc(C(F)(F)F)c2)CC1 [Example I-93, 1-(4-(4-amino-7-cyclopropyl-7H-pyrrolo[2,3-d]pyrimidin-5-yl)-2-fluorophenyl)-3-(3-((4-methylpiperazin-1-yl)methyl)-5-(trifluoromethyl)phenyl)urea] | < 100
6 | Nc1ncnc2c1c(-c1ccc(NC(=O)Nc3ccc(CN4CCC(F)(F)CC4)c(C(F)(F)F)c3)c(F)c1)cn2C1CC1 [Example I-85, 1-(4-(4-amino-7-cyclopropyl-7H-pyrrolo[2,3-d]pyrimidin-5-yl)-2-fluorophenyl)-3-(4-((4,4-difluoropiperidin-1-yl)methyl)-3-(trifluoromethyl)phenyl)urea] | > 2000
7 | Nc1ncnc2c1c(-c1ccc(NC(=O)Nc3ccc(CN4CCC(O)CC4)c(C(F)(F)F)c3)c(F)c1)cn2C1CC1 [Example I-96, 1-(4-(4-amino-7-cyclopropyl-7H-pyrrolo[2,3-d]pyrimidin-5-yl)-2-fluorophenyl)-3-(4-((4-hydroxypiperidin-1-yl)methyl)-3-(trifluoromethyl)phenyl)urea] | 100 to 500
8 | CC1CN(C)CCN1Cc1ccc(NC(=O)Nc2ccc(-c3cn(C4CC4)c4ncnc(N)c34)cc2F)cc1C(F)(F)F (stereo not shown) [Example I-70, 1-(4-(4-amino-7-cyclopropyl-7H-pyrrolo[2,3-d]pyrimidin-5-yl)-2-fluorophenyl)-3-(4-((2,4-dimethylpiperazin-1-yl)methyl)-3-(trifluoromethyl)phenyl)urea] | 100 to 500
9 | Nc1ncnc2c1c(-c1ccc(NC(=O)Nc3ccc(CN4CCN(C5COC5)CC4)c(C(F)(F)F)c3)c(F)c1)cn2C1CC1 [Example I-86, 1-(4-(4-amino-7-cyclopropyl-7H-pyrrolo[2,3-d]pyrimidin-5-yl)-2-fluorophenyl)-3-(4-((4-(oxetan-3-yl)piperazin-1-yl)methyl)-3-(trifluoromethyl)phenyl)urea] | 100 to 500
10 | CN1CCCN(Cc2ccc(NC(=O)Nc3ccc(-c4cn(C5CC5)c5ncnc(N)c45)cc3F)cc2C(F)(F)F)CC1 [Example I-44, 1-(4-(4-amino-7-cyclopropyl-7H-pyrrolo[2,3-d]pyrimidin-5-yl)-2-fluorophenyl)-3-(4-((4-methyl-1,4-diazepan-1-yl)methyl)-3-(trifluoromethyl)phenyl)urea] | < 100
11 | CNC1CCN(Cc2ccc(NC(=O)Nc3ccc(-c4cn(C5CC5)c5ncnc(N)c45)cc3F)cc2C(F)(F)F)CC1 [Example I-74, 1-(4-(4-amino-7-cyclopropyl-7H-pyrrolo[2,3-d]pyrimidin-5-yl)-2-fluorophenyl)-3-(4-((4-(methylamino)piperidin-1-yl)methyl)-3-(trifluoromethyl)phenyl)urea] | 100 to 500
12 | CN1CC2(C1)CN(Cc1ccc(NC(=O)Nc3ccc(-c4cn(C5CC5)c5ncnc(N)c45)cc3F)cc1C(F)(F)F)C2 [Example I-7, 1-(4-(4-amino-7-cyclopropyl-7H-pyrrolo[2,3-d]pyrimidin-5-yl)-2-fluorophenyl)-3-(4-((6-methyl-2,6-diazaspiro[3.3]heptan-2-yl)methyl)-3-(trifluoromethyl)phenyl)urea] | > 2000
13 | CN1CCN(Cc2ccc(NC(=O)Nc3ccc(-c4cn(C5CC5)c5ncnc(N)c45)cc3F)cc2Cl)CC1 [Example I-37, 1-(4-(4-amino-7-cyclopropyl-7H-pyrrolo[2,3-d]pyrimidin-5-yl)-2-fluorophenyl)-3-(3-chloro-4-((4-methylpiperazin-1-yl)methyl)phenyl)urea] | 100 to 500
14 | Nc1ncnc2c1c(-c1ccc(NC(=O)Nc3ccc(OC4CCN(C5COC5)CC4F)c(C(F)(F)F)c3)c(F)c1)cn2C1CC1 (single isomer, unassigned) [Example I-92, 1-(4-(4-amino-7-cyclopropyl-7H-pyrrolo[2,3-d]pyrimidin-5-yl)-2-fluorophenyl)-3-(4-((3-fluoro-1-(oxetan-3-yl)piperidin-4-yl)oxy)-3-(trifluoromethyl)phenyl)urea] | 100 to 500
15 | CN1CCN(Cc2ccc(NC(=O)Nc3ccc(-c4cn(C5CC5)c5ncnc(N)c45)cc3Cl)cc2C(F)(F)F)CC1 [Example I-35, 1-(4-(4-amino-7-cyclopropyl-7H-pyrrolo[2,3-d]pyrimidin-5-yl)-2-chlorophenyl)-3-(4-((4-methylpiperazin-1-yl)methyl)-3-(trifluoromethyl)phenyl)urea] | 100 to 500
16 | Nc1ncnc2c1c(-c1ccc(NC(=O)Nc3ccc(OC4CCN(C5COC5)CC4F)c(C(F)(F)F)c3)c(F)c1)cn2C1CC1 (single isomer, unassigned) [Example I-91, 1-(4-(4-amino-7-cyclopropyl-7H-pyrrolo[2,3-d]pyrimidin-5-yl)-2-fluorophenyl)-3-(4-((3-fluoro-1-(oxetan-3-yl)piperidin-4-yl)oxy)-3-(trifluoromethyl)phenyl)urea] | 100 to 500
17 | Nc1ncnc2c1c(-c1ccc(NC(=O)Nc3ccc(CN4CCOCC4)cc3F)c(F)c1)cn2C1CC1 [Example I-1, 1-(4-(4-amino-7-cyclopropyl-7H-pyrrolo[2,3-d]pyrimidin-5-yl)-2-fluorophenyl)-3-(2-fluoro-4-(morpholinomethyl)phenyl)urea] | > 2000
18 | CN1CCN(Cc2ccc(NC(=O)Nc3ccc(-c4cn(C5CC5)c5ncnc(N)c45)cc3F)cc2C(F)(F)F)C2(CC2)C1 [Example I-8, 1-(4-(4-amino-7-cyclopropyl-7H-pyrrolo[2,3-d]pyrimidin-5-yl)-2-fluorophenyl)-3-(4-((7-methyl-4,7-diazaspiro[2.5]octan-4-yl)methyl)-3-(trifluoromethyl)phenyl)urea] | 100 to 500
19 | Nc1ncnc2c1c(-c1ccc(NC(=O)Nc3ccc(CN4CCOCC4)c(F)c3)c(F)c1)cn2C1CC1 [Example I-2, 1-(4-(4-amino-7-cyclopropyl-7H-pyrrolo[2,3-d]pyrimidin-5-yl)-2-fluorophenyl)-3-(3-fluoro-4-(morpholinomethyl)phenyl)urea] | > 2000
